Data set [1] concerns NOD mice. Nature of the data set: IPGTT in pre-diabetic NOD mice. Type of data set: in vivo, mouse. The conditions noted are these: 14-week and 24-week old NOD mice. On the procedure:
Overnight fasted NOD mice were injected i.p (2 gr/kg bw) with standard 20% dextrose solution. Tail vein blood was sampled on 0, 15, 30, 60, 90 and 120 minutes. Blood glucose was measured by glucometer. Plasma insulin prior to and 30 min following glucose injection was measured using Ultrasensitive Mouse Insulin ELISA kit (Crystal Chem).

The subject of data set [2] is NOD mice. Nature of the data set: Islet insulitis scoring in NOD mice. The format is in vivo, mouse. The conditions noted are these: 14-week old pre-diabetic NOD mice. An excerpt:
Head of pancreas of NOD mice was sampled, fixed in 4% buffered formalin, embedded in paraffin, and […] sections were stained with hematoxylin/eosin. Insulitis scores 0 to 4 were verified by the percentage of intra-islet mononuclear granulation (“0”, no intra-islet mononuclear cell infiltration; “1”, <25% of islet being infiltrated with mononuclear cell granulation; “2”, 25%-50%; “3”, 50-75%; “4”, >75%), in 30 to 40 islets per pancreas.

The test system of data set [3] is SHAM (control) non-diabetic rats. The experiment in a line: Fasting blood glucose in SHAM (control) non-diabetic rats. Type of data set: in vivo, rat. The conditions noted are these: oral 15 mg/kg b.i.d. On the procedure: SHAM (control) rats were injected with 0.1 M of cold citrate buffer (pH 4.5). STZ diabetic or SHAM rats were dosed twice daily by gavage (orally) with 1% CMC (Sigma Aldrich C5678), or with HOOC—C(CH3)2—(CH2)12—C(CH3)2—COOH (2,2,15,15-tetramethylhexadecane-1,16-dioic acid) also termed herein “MEDICA16αα”, “Medica16αα” or M16αα(15 mg/kg body weight) suspended in 1% CMC, or injected intraperitoneal (i.p.) with Neutral Protamine Hagedorn (NPH) insulin (3 u/kg body weight b.i.d), as indicated.
Tail vein FBG was verified daily by a glucometer (Glucometer®, Accu-Check® Performa, Roche Diagnostics). Urine secretion, food and water consumption were measured in standard metabolic cages (Tecniplast™ Metabolic Cage Systems for Rodents) for 48 hour periods. Samples were collected and recorded every 12 hour.

Data set [4] can be described thus: Plasma MEDICA16αα exposure in STZ diabetic rats (LC/MS). Type of data set: in vivo. The conditions noted are these: Sprague-Dawley, rat, po, 15 mg/kg, oral 15 mg/kg b.i.d, data not shown. On the procedure:
Plasma aliquots of 100 μl were vortex-mixed with 50 μl of formic acid:methanol (1:1 v/v) solution containing an internal standard, extracted into n-hexane, centrifuged, and the hexane layer was evaporated to dryness. The residue was reconstituted in the mobile phase and injected into the LC/MS system [Waters Micromass ZQ mass spectrometer (Waters Co.)]. LC/MS conditions were as follows:)(Bridge MS; RP8 column, 3.5 μm, 2.1×100 mm column (Waters Co.); column temperature was 35° C.; isocratic mobile phase, methanol:water (82:18 v/v) containing 0.1% formic acid, at a flow rate of 0.2 ml/min; detector tuned to 500 L/hr nitrogen flow; source temperature; 400° C.; cone voltage 30V; ionization mode ESI+; 365 and 393 m/z for MEDICA16αα and the internal standard, respectively. Calibration curves were linear and validated in the 100 ng/ml to 5000 ng/ml range, with accuracy of 7-9% relative error and precision of 8-10% relative standard deviation.

For data set [5], the system named is NOD mice. Nature of the data set: Prevention of overt type 1 diabetes (T1D) in NOD mice. Type of data set: in vivo, mouse. On the procedure: NOD/LtJ mice (Harlan Laboratories) were bred in-house under pathogen-free conditions. Female mice (3-week old) were fed ad libitum from weaning on with standard chow (Harlan Teklad 2018), or with MEDICA16αα diet (0.04% (w/w) MEDICA16αα mixed in Teklad 2018, yielding a dose of 40 mg MEDICA16αα per kg body weight per day). Mice were monitored weekly for body weight and food consumption. Tail vein blood glucose was verified weekly from week 10th on, on a set day and hour. Mice were considered diabetic if presenting non-fasting blood glucose levels >300 mg/dl for 3 consecutive days. Diabetic mice were euthanized, and blood and tissues were sampled for further studies.

Where two headings read alike, the source gives them in different places.

Results on one molecule are retold here after patent US10512624B2, “Long-chain amphipathic dicarboxylic acids for treatment of diabetes type-1” (Syndromex Ltd., priority 2016, dated 2019).

`CC(C)(CCCCCCCCCCCCC(C)(C)C(=O)O)C(=O)O` [MEDICA16αα, 2,2,15,15-tetramethylhexadecane-1,16-dioic acid]: in the data set with NOD mice [1], the “pre-diabetic IPGTT profile” value is listed as “normalizing”. Moreover, the glucose-stimulated plasma insulin entry in the data set with NOD mice [1] (first 30 min of IPGTT) is given as “remained unaffected”. In addition, the “islet insulitis rankings versus non-treated” value with NOD mice [2] was “essentially similar”. Moreover, the hypoglycemia result in data set [3] is given as “did not result in hypoglycemia”. In addition, the concentration at 10 days in data set [4] (read-out: plasma MEDICA16αα exposure, non-responsive rats) worked out at 26 ± 8.7 ng/mL; in data set [4] (read-out: plasma MEDICA16αα exposure, responsive rats), 22.5 ± 4.4 ng/mL. For the same molecule, in the data set on NOD mice [5] (NOD mice, 40 mg/kg per day in feed), the “decrease in body weight gain” value is recorded as 40%. In addition, the “NOD mice in which development of T1D was delayed or prevented” value with NOD mice [5] (oral in feed 40 mg/kg per day from weaning, 21 weeks (until week 26), 32% in non-treated group) is 71%.
